# Data reported in US7645752B2, “Sulfonyl substituted 1H-indoles as ligands for the 5-hydroxytryptamine receptors” (Wyeth LLC, priority 2006, dated 2010).
# Where a name gives a salt, the structure may show the parent alone.
row,Structure (SMILES),melting point
1,"CC(C)NCCc1ccc2[nH]cc(S(=O)(=O)c3ccccc3)c2c1 (as salt: hydrochloride) [Example 3, N-{2-[3-(phenylsulfonyl)-1H-indol-5-yl]ethyl}propan-2-amine]",263 °C
2,"O=S(=O)(c1ccccc1)c1c[nH]c2ccc(CCNC3CC3)cc12 (as salt: hydrochloride) [Example 4, N-{2-[3-(phenylsulfonyl)-1H-indol-5-yl]ethyl}cyclopropanamine]",205 to 208 °C
3,"O=S(=O)(c1ccccc1)c1c[nH]c2ccc(CCNC3CCCC3)cc12 (as salt: hydrochloride) [Example 5, N-{2-[3-(phenylsulfonyl)-1H-indol-5-yl]ethyl}cyclopentanamine]",252 °C
4,"O=S(=O)(c1ccccc1)c1c[nH]c2ccc(CCNCc3ccccc3)cc12 (as salt: hydrochloride) [Example 6, N-benzyl-N-{2-[3-(phenylsulfonyl)-1H-indol-5-yl]ethyl}amine]",215 to 220 °C
5,"CCN(C)CCc1ccc2[nH]cc(S(=O)(=O)c3ccccc3)c2c1 (as salt: hydrochloride) [Example 7, N-ethyl-N-methyl-N-{2-[3-(phenylsulfonyl)-1H-indol-5-yl]ethyl}amine]",203 °C
6,"CCN(CC)CCc1ccc2[nH]cc(S(=O)(=O)c3ccccc3)c2c1 (as salt: hydrochloride) [Example 8, N,N-diethyl-N-{2-[3-(phenylsulfonyl)-1H-indol-5-yl]ethyl}amine]",193 to 195 °C
7,"O=S(=O)(c1ccccc1)c1c[nH]c2ccc(CCN3CCCC3)cc12 (as salt: hydrochloride) [Example 9, 3-(phenylsulfonyl)-5-(2-pyrrolidin-1-ylethyl)-1H-indole]",230 to 232 °C
8,"O=S(=O)(c1ccccc1)c1c[nH]c2ccc(CCN3CCCCC3)cc12 (as salt: hydrochloride) [Example 10, 3-(phenylsulfonyl)-5-(2-piperidin-1-ylethyl)-1H-indole]",272 °C
9,"O=S(=O)(c1ccccc1)c1c[nH]c2ccc(CCN3CCOCC3)cc12 (as salt: hydrochloride) [Example 11, 5-(2-morpholin-4-ylethyl)-3-(phenylsulfonyl)-1H-indole]",250 to 255 °C
10,"NCCc1ccc2[nH]cc(S(=O)(=O)c3ccccc3)c2c1 (as salt: hydrochloride) [Example 12, {2-[3-(phenylsulfonyl)-1H-indol-5-yl]ethyl}amine]",200 °C
11,"O=S(=O)(c1ccccc1)c1c[nH]c2ccc(CCN3CCNCC3)cc12 (as salt: hydrochloride) [Example 13, 3-(phenylsulfonyl)-5-(2-piperazin-1-ylethyl)-1H-indole]",220 °C
12,"CN(C)CCc1cccc2c(S(=O)(=O)c3ccccc3)c[nH]c12 (as salt: hydrochloride) [Example 18, N,N-dimethyl-N-{2-[3-(phenylsulfonyl)-1H-indol-7-yl]ethyl}amine]",205 to 208 °C (dec.)
13,"CNCCc1cccc2c(S(=O)(=O)c3ccccc3)c[nH]c12 (as salt: hydrochloride) [Example 19, N-methyl-N-{2-[3-(phenylsulfonyl)-1H-indol-7-yl]ethyl}amine]",187 to 188 °C
14,"CCCNCCc1cccc2c(S(=O)(=O)c3ccccc3)c[nH]c12 (as salt: hydrochloride) [Example 20, N-{2-[3-(phenylsulfonyl)-1H-indol-7-yl]ethyl}-N-propylamine]",260 to 262 °C
15,"CC(C)NCCc1cccc2c(S(=O)(=O)c3ccccc3)c[nH]c12 (as salt: hydrochloride) [Example 21, N-{2-[3-(phenylsulfonyl)-1H-indol-7-yl]ethyl}propan-2-amine]",291 to 293 °C (dec.)
16,"O=S(=O)(c1ccccc1)c1c[nH]c2c(CCNC3CC3)cccc12 (as salt: hydrochloride) [Example 22, N-{2-[3-(phenylsulfonyl)-1H-indol-7-yl]ethyl}cyclopropanamine]",213 to 216 °C (dec.)
17,"O=S(=O)(c1ccccc1)c1c[nH]c2c(CCNC3CCCC3)cccc12 (as salt: hydrochloride) [Example 23, N-{2-[3-(phenylsulfonyl)-1H-indol-7-yl]ethyl}cyclopentanamine]",255 to 256 °C (dec.)
18,"CCN(C)CCc1cccc2c(S(=O)(=O)c3ccccc3)c[nH]c12 (as salt: hydrochloride) [Example 24, N-ethyl-N-methyl-N-{2-[3-(phenylsulfonyl)-1H-indol-7-yl]ethyl}amine]",215 to 218 °C (dec.)
19,"CCN(CC)CCc1cccc2c(S(=O)(=O)c3ccccc3)c[nH]c12 (as salt: hydrochloride) [Example 25, N,N-diethyl-N-{2-[3-(phenylsulfonyl)-1H-indol-7-yl]ethyl}amine]",165 to 166 °C (dec.)
20,"O=S(=O)(c1ccccc1)c1c[nH]c2c(CCN3CCCC3)cccc12 (as salt: hydrochloride) [Example 26, 3-(phenylsulfonyl)-7-(2-pyrrolidin-1-ylethyl)-1H-indole]",250 to 252 °C (dec.)

row,Structure (SMILES),melting point
1,"O=S(=O)(c1ccccc1)c1c[nH]c2c(CCN3CCCCC3)cccc12 (as salt: hydrochloride) [Example 27, 3-(phenylsulfonyl)-7-(2-piperidin-1-ylethyl)-1H-indole]",231 to 233 °C
2,"O=S(=O)(c1ccccc1)c1c[nH]c2c(CCN3CCOCC3)cccc12 (as salt: hydrochloride) [Example 28, 7-(2-morpholin-4-ylethyl)-3-(phenylsulfonyl)-1H-indole]",246 to 248 °C (dec.)
3,"O=S(=O)(c1ccccc1)c1c[nH]c2c(CCN3CCNCC3)cccc12 (as salt: hydrochloride) [Example 30, 3-(phenylsulfonyl)-7-(2-piperazin-1-ylethyl)-1H-indole]",190 °C
4,"CN(C)CCc1cccc2[nH]cc(S(=O)(=O)c3ccccc3)c12 (as salt: hydrochloride) [Example 31, N,N-dimethyl-N-{2-[3-(phenylsulfonyl)-1H-indol-4-yl]ethyl}amine]",122 to 126 °C
5,"CNCCc1cccc2[nH]cc(S(=O)(=O)c3ccccc3)c12 (as salt: hydrochloride) [Example 32, N-methyl-N-{2-[3-(phenylsulfonyl)-1H-indol-4-yl]ethyl}amine]",168 to 170 °C
6,"CCNCCc1cccc2[nH]cc(S(=O)(=O)c3ccccc3)c12 (as salt: hydrochloride) [Example 33, N-ethyl-N-{2-[3-(phenylsulfonyl)-1H-indol-4-yl]ethyl}amine]",225 to 228 °C
7,"CCCNCCc1cccc2[nH]cc(S(=O)(=O)c3ccccc3)c12 (as salt: hydrochloride) [Example 34, N-{2-[3-(phenylsulfonyl)-1H-indol-4-yl]ethyl}-N-propylamine]",217 °C
8,"CC(C)NCCc1cccc2[nH]cc(S(=O)(=O)c3ccccc3)c12 (as salt: hydrochloride) [Example 35, N-{2-[3-(phenylsulfonyl)-1H-indol-4-yl]ethyl}propan-2-amine]",185 to 187 °C
9,"O=S(=O)(c1ccccc1)c1c[nH]c2cccc(CCNC3CC3)c12 (as salt: hydrochloride) [Example 36, N-{2-[3-(phenylsulfonyl)-1H-indol-4-yl]ethyl}cyclopropanamine]",145 to 150 °C
10,"O=S(=O)(c1ccccc1)c1c[nH]c2cccc(CCNC3CCC3)c12 (as salt: hydrochloride) [Example 37, N-{2-[3-(phenylsulfonyl)-1H-indol-4-yl]ethyl}cyclobutanamine]",95 to 103 °C
11,"O=S(=O)(c1ccccc1)c1c[nH]c2cccc(CCNC3CCCCC3)c12 (as salt: hydrochloride) [Example 39, N-{2-[3-(phenylsulfonyl)-1H-indol-4-yl]ethyl}cyclohexanamine]",241 °C
12,"CCN(C)CCc1cccc2[nH]cc(S(=O)(=O)c3ccccc3)c12 (as salt: hydrochloride) [Example 40, N-ethyl-N-methyl-N-{2-[3-(phenylsulfonyl)-1H-indol-4-yl]ethyl}amine]",92 to 98 °C
13,"CN(CCc1cccc2[nH]cc(S(=O)(=O)c3ccccc3)c12)C1CCCCC1 (as salt: hydrochloride) [Example 41, N-cyclohexyl-N-methyl-N-{2-[3-(phenylsulfonyl)-1H-indol-4-yl]ethyl}amine]",132 to 140 °C
14,"CCN(CC)CCc1cccc2[nH]cc(S(=O)(=O)c3ccccc3)c12 (as salt: hydrochloride) [Example 42, N,N-diethyl-N-{2-[3-(phenylsulfonyl)-1H-indol-4-yl]ethyl}amine]",77 to 83 °C
15,"O=S(=O)(c1ccccc1)c1c[nH]c2cccc(CCN3CCCC3)c12 (as salt: hydrochloride) [Example 43, 3-(phenylsulfonyl)-4-(2-pyrrolidin-1-ylethyl)-1H-indole]",145 to 150 °C
16,"O=S(=O)(c1ccccc1)c1c[nH]c2cccc(CCN3CCCCC3)c12 (as salt: hydrochloride) [Example 44, 3-(phenylsulfonyl)-4-(2-piperidin-1-ylethyl)-1H-indole]",200 to 205 °C
17,"O=S(=O)(c1ccccc1)c1c[nH]c2cccc(CCN3CCOCC3)c12 (as salt: hydrochloride) [Example 45, 4-(2-morpholin-4-ylethyl)-3-(phenylsulfonyl)-1H-indole]",164 to 165 °C
18,"CC(NCCc1cccc2[nH]cc(S(=O)(=O)c3ccccc3)c12)C(C)(C)C (stereo not shown) (as salt: hydrochloride) [Example 46, N-{2-[3-(phenylsulfonyl)-1H-indol-4-yl]ethyl}-N-(1,2,2-trimethylpropyl)amine]",275 °C
19,"O=S(=O)(c1ccccc1)c1c[nH]c2cccc(CCNCc3ccccc3)c12 (as salt: hydrochloride) [Example 47, N-benzyl-N-{2-[3-(phenylsulfonyl)-1H-indol-4-yl]ethyl}amine]",172 °C
20,"CC(C)CNCCc1cccc2[nH]cc(S(=O)(=O)c3ccccc3)c12 (as salt: hydrochloride) [Example 48, N-isobutyl-N-{2-[3-(phenylsulfonyl)-1H-indol-4-yl]ethyl}amine]",220 °C
